Experimental data reported in patent US12479847B2 (DANA-FARBER CANCER INSTITUTE, INC., priority 2019, dated 2025).

Experiments:
Experiment in all cases: KINOMEscan (ScanMAX) kinase profiling
Type in all cases: binding
panel of 468 kinases [1] = molecular target: T1, panel of 468 kinases (Homo sapiens, UniProt O15146); details: MUSK; 1 μM; read-out: % control
T1 construct: purchased KINOMEscan (ScanMAX) service
T1 sequence (O15146 24-869): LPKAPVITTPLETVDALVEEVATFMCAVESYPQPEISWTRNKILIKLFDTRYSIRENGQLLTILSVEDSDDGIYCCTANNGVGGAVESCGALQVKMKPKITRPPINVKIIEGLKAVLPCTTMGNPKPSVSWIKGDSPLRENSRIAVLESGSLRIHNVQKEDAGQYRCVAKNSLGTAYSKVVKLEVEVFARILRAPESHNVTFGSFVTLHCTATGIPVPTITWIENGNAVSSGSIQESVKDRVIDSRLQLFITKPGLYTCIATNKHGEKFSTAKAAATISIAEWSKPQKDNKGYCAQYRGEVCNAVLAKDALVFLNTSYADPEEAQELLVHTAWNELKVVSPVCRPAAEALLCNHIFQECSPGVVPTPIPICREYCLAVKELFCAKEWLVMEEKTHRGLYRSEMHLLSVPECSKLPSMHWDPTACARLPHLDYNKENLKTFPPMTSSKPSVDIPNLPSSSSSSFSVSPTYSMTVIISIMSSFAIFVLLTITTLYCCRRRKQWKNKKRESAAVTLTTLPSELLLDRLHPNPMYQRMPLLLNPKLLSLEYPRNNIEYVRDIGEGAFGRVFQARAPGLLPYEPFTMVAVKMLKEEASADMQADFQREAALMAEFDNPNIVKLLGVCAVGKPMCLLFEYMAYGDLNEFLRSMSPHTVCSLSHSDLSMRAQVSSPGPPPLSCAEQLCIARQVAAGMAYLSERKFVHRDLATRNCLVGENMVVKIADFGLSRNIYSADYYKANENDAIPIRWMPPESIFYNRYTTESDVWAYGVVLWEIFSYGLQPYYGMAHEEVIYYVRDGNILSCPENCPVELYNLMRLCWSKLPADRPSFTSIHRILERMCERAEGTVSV

panel of 468 kinases [2] = molecular target: T2, panel of 468 kinases (Homo sapiens, UniProt P22607); details: FGFR3; 1 μM; read-out: % control
T2 construct: purchased KINOMEscan (ScanMAX) service
T2 sequence (P22607 23-806): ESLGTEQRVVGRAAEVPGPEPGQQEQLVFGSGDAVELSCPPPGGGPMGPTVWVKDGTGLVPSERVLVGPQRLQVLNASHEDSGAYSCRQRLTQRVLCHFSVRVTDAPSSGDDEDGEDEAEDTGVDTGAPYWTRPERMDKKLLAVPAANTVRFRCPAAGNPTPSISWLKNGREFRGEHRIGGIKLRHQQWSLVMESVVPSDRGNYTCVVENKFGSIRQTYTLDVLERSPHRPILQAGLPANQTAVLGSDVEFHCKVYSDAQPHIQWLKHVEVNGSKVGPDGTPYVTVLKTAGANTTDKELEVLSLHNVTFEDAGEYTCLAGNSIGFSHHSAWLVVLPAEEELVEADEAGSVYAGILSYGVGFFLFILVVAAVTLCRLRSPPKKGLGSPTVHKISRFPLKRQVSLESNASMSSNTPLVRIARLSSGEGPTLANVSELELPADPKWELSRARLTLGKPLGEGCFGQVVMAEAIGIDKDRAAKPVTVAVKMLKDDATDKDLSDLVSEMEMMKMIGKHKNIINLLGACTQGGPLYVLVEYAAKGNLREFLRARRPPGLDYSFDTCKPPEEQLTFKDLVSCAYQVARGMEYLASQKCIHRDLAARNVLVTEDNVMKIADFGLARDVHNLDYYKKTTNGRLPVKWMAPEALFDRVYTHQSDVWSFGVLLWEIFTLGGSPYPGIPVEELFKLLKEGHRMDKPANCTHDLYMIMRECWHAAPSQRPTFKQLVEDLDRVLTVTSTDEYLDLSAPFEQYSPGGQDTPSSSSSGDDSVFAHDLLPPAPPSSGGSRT

panel of 468 kinases [3] = molecular target: T3, panel of 468 kinases (Homo sapiens, UniProt Q15746); details: MYLK; 1 μM; read-out: % control
T3 construct: purchased KINOMEscan (ScanMAX) service
T3 sequence (Q15746 whole entry): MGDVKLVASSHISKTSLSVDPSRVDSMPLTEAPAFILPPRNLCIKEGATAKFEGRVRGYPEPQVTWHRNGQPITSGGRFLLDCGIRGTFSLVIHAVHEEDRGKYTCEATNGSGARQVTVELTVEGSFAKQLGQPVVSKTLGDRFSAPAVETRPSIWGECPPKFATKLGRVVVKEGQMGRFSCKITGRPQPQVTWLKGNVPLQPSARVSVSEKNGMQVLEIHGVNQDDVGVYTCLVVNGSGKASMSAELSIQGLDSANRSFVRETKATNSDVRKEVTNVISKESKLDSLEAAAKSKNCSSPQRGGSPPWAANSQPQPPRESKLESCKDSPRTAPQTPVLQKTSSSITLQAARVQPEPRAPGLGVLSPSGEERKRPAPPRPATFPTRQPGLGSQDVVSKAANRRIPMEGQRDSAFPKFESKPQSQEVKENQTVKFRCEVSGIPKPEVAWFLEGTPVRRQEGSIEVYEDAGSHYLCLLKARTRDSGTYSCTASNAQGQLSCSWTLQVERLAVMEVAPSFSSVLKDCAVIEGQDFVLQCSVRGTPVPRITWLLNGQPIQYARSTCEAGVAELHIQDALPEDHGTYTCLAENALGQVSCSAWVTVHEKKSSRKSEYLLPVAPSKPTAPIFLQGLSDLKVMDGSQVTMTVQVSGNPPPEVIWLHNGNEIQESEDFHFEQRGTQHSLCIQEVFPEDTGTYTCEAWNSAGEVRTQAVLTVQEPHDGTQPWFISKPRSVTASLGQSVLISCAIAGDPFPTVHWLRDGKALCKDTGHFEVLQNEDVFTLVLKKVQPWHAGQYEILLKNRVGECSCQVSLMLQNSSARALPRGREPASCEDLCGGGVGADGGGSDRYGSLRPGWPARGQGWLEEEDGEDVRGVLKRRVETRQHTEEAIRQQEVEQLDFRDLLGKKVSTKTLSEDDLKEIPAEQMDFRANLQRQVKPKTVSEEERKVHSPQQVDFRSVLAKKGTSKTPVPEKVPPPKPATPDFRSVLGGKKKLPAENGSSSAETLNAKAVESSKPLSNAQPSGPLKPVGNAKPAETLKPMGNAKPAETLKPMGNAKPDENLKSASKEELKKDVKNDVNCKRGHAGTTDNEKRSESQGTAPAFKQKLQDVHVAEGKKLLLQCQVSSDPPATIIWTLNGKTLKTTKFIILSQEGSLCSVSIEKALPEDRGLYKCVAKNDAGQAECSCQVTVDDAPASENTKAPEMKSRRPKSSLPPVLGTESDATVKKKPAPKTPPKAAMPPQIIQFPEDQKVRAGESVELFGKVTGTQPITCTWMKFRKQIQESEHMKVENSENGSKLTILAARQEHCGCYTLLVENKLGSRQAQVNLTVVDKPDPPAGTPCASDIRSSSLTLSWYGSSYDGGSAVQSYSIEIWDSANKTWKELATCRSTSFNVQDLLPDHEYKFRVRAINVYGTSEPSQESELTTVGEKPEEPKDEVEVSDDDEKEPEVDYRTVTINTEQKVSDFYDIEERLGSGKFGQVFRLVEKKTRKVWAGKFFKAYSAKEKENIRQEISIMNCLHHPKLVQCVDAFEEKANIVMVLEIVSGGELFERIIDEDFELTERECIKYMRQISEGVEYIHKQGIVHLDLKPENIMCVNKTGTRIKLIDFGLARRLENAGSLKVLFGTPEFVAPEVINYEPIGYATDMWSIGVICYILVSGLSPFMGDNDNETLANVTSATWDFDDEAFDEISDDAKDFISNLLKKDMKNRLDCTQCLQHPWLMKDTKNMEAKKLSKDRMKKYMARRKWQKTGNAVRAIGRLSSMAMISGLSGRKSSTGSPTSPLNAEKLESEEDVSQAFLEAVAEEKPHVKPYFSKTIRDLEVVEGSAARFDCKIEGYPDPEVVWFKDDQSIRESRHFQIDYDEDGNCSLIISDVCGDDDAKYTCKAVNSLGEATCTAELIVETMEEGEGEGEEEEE

panel of 468 kinases [4] = molecular target: T4, panel of 468 kinases (Homo sapiens, UniProt Q16816); details: PHKG1; 1 μM; read-out: % control
T4 construct: purchased KINOMEscan (ScanMAX) service
T4 sequence (Q16816 whole entry): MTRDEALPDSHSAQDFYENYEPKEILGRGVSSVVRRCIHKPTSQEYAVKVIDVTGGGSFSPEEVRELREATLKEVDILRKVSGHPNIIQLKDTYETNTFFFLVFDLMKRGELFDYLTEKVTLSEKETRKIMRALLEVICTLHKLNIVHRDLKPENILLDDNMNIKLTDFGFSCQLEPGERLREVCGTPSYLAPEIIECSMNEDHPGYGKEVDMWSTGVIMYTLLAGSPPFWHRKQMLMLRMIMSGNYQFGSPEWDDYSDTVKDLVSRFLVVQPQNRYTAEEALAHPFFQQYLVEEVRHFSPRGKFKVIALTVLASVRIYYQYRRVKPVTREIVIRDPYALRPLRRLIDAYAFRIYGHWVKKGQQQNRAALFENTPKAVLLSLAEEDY

panel of 468 kinases [5] = molecular target: T5, panel of 468 kinases (Homo sapiens, UniProt Q9UL54); details: TAOK2; 1 μM; read-out: % control
T5 construct: purchased KINOMEscan (ScanMAX) service
T5 sequence (Q9UL54 1-1235): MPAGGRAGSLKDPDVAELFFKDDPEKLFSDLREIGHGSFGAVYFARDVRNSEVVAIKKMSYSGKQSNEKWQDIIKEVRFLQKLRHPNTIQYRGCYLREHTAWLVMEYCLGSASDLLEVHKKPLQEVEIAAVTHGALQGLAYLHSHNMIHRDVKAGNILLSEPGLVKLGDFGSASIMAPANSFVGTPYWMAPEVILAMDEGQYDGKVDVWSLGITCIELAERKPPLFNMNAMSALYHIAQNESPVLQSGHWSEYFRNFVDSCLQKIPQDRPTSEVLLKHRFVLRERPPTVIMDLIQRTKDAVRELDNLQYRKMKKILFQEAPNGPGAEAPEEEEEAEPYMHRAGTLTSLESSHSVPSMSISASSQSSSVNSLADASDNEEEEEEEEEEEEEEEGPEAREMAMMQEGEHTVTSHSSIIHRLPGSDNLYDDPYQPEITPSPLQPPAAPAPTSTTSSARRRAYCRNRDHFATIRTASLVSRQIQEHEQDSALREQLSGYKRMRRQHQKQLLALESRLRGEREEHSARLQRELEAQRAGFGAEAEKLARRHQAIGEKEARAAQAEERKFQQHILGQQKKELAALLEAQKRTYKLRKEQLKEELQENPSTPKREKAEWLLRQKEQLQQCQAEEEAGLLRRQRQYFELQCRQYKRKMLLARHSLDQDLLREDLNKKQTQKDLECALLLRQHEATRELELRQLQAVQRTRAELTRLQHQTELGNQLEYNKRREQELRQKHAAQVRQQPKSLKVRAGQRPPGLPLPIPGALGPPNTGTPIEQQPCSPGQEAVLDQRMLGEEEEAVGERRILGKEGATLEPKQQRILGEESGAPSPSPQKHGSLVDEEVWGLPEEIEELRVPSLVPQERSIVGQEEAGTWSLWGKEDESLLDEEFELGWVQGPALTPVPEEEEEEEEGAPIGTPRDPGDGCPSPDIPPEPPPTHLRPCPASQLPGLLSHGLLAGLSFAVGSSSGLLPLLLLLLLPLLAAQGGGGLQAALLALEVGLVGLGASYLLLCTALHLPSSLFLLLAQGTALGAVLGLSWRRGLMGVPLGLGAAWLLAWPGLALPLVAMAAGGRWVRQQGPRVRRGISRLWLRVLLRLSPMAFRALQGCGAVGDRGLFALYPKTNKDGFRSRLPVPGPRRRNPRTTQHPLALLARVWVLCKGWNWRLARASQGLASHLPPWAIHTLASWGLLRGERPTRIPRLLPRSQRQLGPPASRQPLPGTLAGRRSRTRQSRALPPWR

| Compound | remaining binding at 1 µM (panel of 468 kinases [1]) [%] | remaining binding at 1 µM (panel of 468 kinases [2]) [%] | remaining binding at 1 µM (panel of 468 kinases [3]) [%] | remaining binding at 1 µM (panel of 468 kinases [4]) [%] | remaining binding at 1 µM (panel of 468 kinases [5]) [%] |
| --- | --- | --- | --- | --- | --- |
| CNc1nc(Nc2ccc(S(=O)(=O)N3CCC(N4CCOCC4)CC3)cc2OC)nc2[nH]cc(Cl)c12 [Compound 12, 5-chloro-N2-(2-methoxy-4-((4-morpholinopiperidin-1-yl)sulfonyl)phenyl)-N4-methyl-7H-pyrrolo[2,3-d]pyrimidine-2,4-diamine] | 98 | 100 | 8.8 | 25 | 73 |
| CNc1nc(Nc2ccc(C(=O)N3CCC(N4CCOCC4)CC3)c3c2OCO3)nc2[nH]cc(Cl)c12 [Compound 75, (7-((5-chloro-4-(methylamino)-7H-pyrrolo[2,3-d]pyrimidin-2-yl)amino)benzo[d][1,3]dioxol-4-yl)(4-morpholinopiperidin-1-yl)methanone] | 21 | 98 | 18 | 14 | 77 |
| CNc1nc(Nc2ccc(P3(=O)CCN(C4CCOCC4)CC3)cc2OC)nc2[nH]cc(Cl)c12 [Compound 77, 4-(4-((5-chloro-4-(methylamino)-7H-pyrrolo[2,3-d]pyrimidin-2-yl)amino)-3-methoxyphenyl)-1-(tetrahydro-2H-pyran-4-yl)-1,4-azaphosphinane 4-oxide] | 72 | 100 | 0.05 | 8.4 | 76 |
